Reference: US20250051337A1 (priority 2021, published 2025)
Like-named read-outs stand apart in the source and are kept apart here. Marks after values point to notes of the source that are not given here.

Legend:
in vivo = details: female, C57BL/6J, mouse, ip, 10 mg/kg
Experimental: (§1) All animal procedures were approved by the Sanford Burnham Prebys Medical Discovery Institute Institutional Animal Care and Use Committee and were performed according to the NIH guidelines for the Care and Use of Laboratory Animals. Adult female C57BL/6J mice were purchased from Jackson Laboratories and housed with free access to food and water on a 12 h light/dark cycle. Compounds were formulated in 5% DMSO, 10% Tween-80, and 85% H2O and injected intraperitoneally at 10 or 20 mg/kg. Blood samples were collected retro-orbitally at the indicated times and plasma was prepared by centrifugation. Livers were collected post mortem at the indicated times.
(§2) For quantification of compound, plasma samples were extracted with acetonitrile: water 4:1 with 0.1% formic acid containing indomethacin as an internal standard. Samples were centrifuged and the supernatants were diluted with acetonitrile: water and analyzed by LC-MS/MS using a Shimadzu Nexera X2 High-performance liquid chromatography (HPLC) (Shimadzu Scientific Instruments: Kyoto, Japan) coupled to an AB Sciex 6500 QTRAP (AB Sciex LLC: Toronto, Canada).

[1] = tested on: Thr35-phosphorylated MOB1 in liver; test: Western blot analysis of p-MOB1 in mouse liver; format: in vivo; details: mice; for levels of Thr35-phosphorylated MOB1 in liver vs vehicle / Relative decrease in liver p-MOB1 level: 20 mg/kg intraperitoneal; for levels of Thr35-phosphorylated MOB1 in liver vs vehicle: 1 h, p<0.002; for Relative decrease in liver p-MOB1 level: 1 h post-dose
Experimental: […] Approximately 50 mg of liver tissue was placed in 1 mL Radioimmunoprecipitation assay (RIPA) buffer (50 mM Tris-HCl pH 8.0, 150 mM NaCl, 1.0% IGEPAL® CA-630, 0.5% sodium deoxycholate, and 0.1% SDS) containing phosphatase and protease inhibitor cocktails, homogenized with a PowerGen 125 homogenizer (Fisher Scientific), and then sonicated for 10 s. Homogenized tissues were centrifuged at 14,000×g at 4° C. for 20 min and the supernatants were recovered.
Protein concentrations in the supernatants were determined using a BCA assay (Pierce/Thermo Scientific). Proteins were separated on Novex™ WedgeWell™ 4-20% Tris-Glycine Gels (Invitrogen: Carlsbad, CA, USA) and transferred to polyvinylidene difluoride (Trans-Blot® Turbo™ Transfer Pack) membranes. Membranes were blocked in Tris-buffered saline Tween® 20 (50 mM Tris-HCl pH 7.6, 150 mM NaCl, 0.05% Tween 20: TBST) containing 3% Bovine Serum Albumin (BSA) for 1 h at room temperature and incubated overnight at 4° C. with primary antibodies as follows: 1:1000 dilution of anti-MOB1 (rabbit monoclonal antibody [mAb]#13730), 1:1000 anti-phospho-MOB1 Thr35 (rabbit mAb #8699), or 1:5000 anti-GAPDH (rabbit mAb #2118: all from Cell Signaling Technology: Danvers, MA, USA). Blots were rinsed three times with TBST and then incubated in 5% nonfat milk containing horseradish peroxidase (HRP)-conjugated mouse anti-rabbit IgG secondary Ab (Cell Signaling Technology) for 1 h at RT. Blots were washed three times with TBST, developed using Pierce® ECL Western Blotting reagent, and imaged and analyzed using with ImageJ software. Quantitative data are expressed as the level of phosphorylated MOB1 normalized to total MOB1.
(§3) Adult female C57BL/6 mice (n=3/group) were intraperitoneally injected with vehicle or test compound (20 mg/kg), and blood samples and livers were collected at 30 min and 1 h post-injection, respectively. Plasma concentrations of all 13 compounds were >1.4 μM at 30 min after injection, and 10 compounds had liver concentrations >1.0 μM at 1 h after injection, as measured by LC-MS/MS, with particularly high plasma concentrations obtained with compounds 11 (15.9 μM), 16 (11.6 μM) and 105 (8.7 μM) (Table 5). To evaluate target engagement in vivo, the total and phosphorylated MOB1 levels in livers collected at 1 h post-injection was examined.

STK3 = STK3 (Homo sapiens (Human), UniProt Q13188); test: NanoBRET intracellular kinase assay, STK3; format: cell-based; details: NanoBRET, transfected HEK293 cells, 2 h; read-out: STK3: IC50
Experimental: Full-length STK3, STK4, and LRRK2 kinase was cloned in-frame with a C-terminal NanoLuc-fusion (Promega: Madison, WI, USA) and the plasmid was transfected into HEK293T cells using FuGENE HD (Promega, E2312). […] After 2 h at 37° C. in a 5% CO2 atmosphere, NanoBRET NanoGlo Substrate+Extra-cellular NanoLuc Inhibitor (Promega, N2540) was added, and filtered luminescence was measured on a PHERAstar plate reader (BMG Labtech; Ortenberg, Germany) equipped with a lumi-nescence filter pair (450 nm BP filter (donor) and 610 nm LP filter (acceptor)).
This assay measured the apparent affinity of test compounds by competitive displacement of the NanoBRET™ tracer, reversibly bound to a NanoLuc® luciferase-kinase fusion in cells. To evaluate potential off-target activity of the inhibitors, the inhibition of LRRK2 in live cells by the STK3/4 inhibitors compounds described herein were measured. […] A 50 nM tracer and these compounds were added to cells and incubated for 2 h.

[2] = In vivo plasma and liver concentrations, 20 mg/kg intraperitoneal; details: female, C57BL/6J, mouse, ip
Experimental: as §1, §2, §3
Tween 80 and water and were administered to mice by intraperitoneal injection. Blood samples and livers were collected at 30 min and 1 h post-dose, respectively. Plasma concentrations and relative pMOB1 levels were determined by LC-MS/MS and western blot analysis, respectively. (n=3).

[3] = tested on: YAP/TAZ-TEAD activity (8×GTIIC-luciferase) in HEK293 cells; test: YAP-TAZ-TEAD luciferase assay; format: cell-based; details: 10 μM, 48 h, vs DMSO
Experimental: 8×GTIIC-luciferase was a gift from Stefano Piccolo (Addgene plasmid #34615, http://n2t.net/addgene: 34615: RRID: Addgene_34615). HEK293 cells were transfected with 8×GTIIC-luciferase plasmid and control Renilla luciferase plasmid using jetPRIME transfection reagent (Polyplus-transfection RSA: New York, NY. USA) for 24 h and cultured in Dulbeco's Modified Eagle Media (DMEM) Glutamax supplemented with 10% Fetal Bovine Serum (FBS), antibiotic/antimycotic, and sodium pyruvate (Gibco. Thermo FisherScientific: Waltham. MA. USA). The transfected cells were treated with 10 μM compound in triplicate and incubated for 48 h at 37° C. Firefly and Renilla luminescence were detected with a Dual-Glo Luciferase Assay System (Promega #E2920) according to the manufacturer's recommendations. The ratio of firefly to Renilla luminescence was calculated for each well and normalized to the ratio in control cells incubated with DMSO.
STK3/4 can negatively regulate the activity of the YAP/TAZ-TEAD protein complex and, accordingly, inactivation of these kinases reduces the transcription of YAP/TAZ-TEAD target genes. […] The results confirmed the intracellular on-target activity of our potent compounds for inhibiting STK3 and STK4 activity and targeting gene expression in the Hippo signaling pathway.

[4] = mice, 20 mg/kg intraperitoneal, 30 min post-dose, read-out: Plasma concentration

Compound | AUC(0-t) (in vivo) [µM·h] | Cmax (in vivo) [µM] | Tmax (in vivo) [min] | half-life (in vivo) [min] | levels of Thr35-phosphorylated MOB1 in liver vs vehicle [1] | Relative decrease in liver p-MOB1 level [1] | IC50 (STK3) [nM] | concentration at 1 h ([2]; 20 mg/kg) [µM] | concentration at 30 min [2, 4] [µM] | YAP/TAZ-TEAD activity (luciferase reporter) [3] | concentration at 30 min ([2]; 20 mg/kg) [µM] | inhibition of MOB1 phosphorylation in liver ([1]; 10 mg/kg intraperitoneal, 1, 2, 3 h)
OC1CCN(c2ncnc3[nH]cc(-c4cccc(Cl)c4)c23)CC1 [Compound 16, 1-(5-(3-Chlorophenyl)-7H-pyrrolo[2,3-d]pyrimidin-4-yl)piperidin-4-ol] | 4.3 | 5.8 | 15 | 594 | significant reduction | 78%** | < 1000 | 5.9 | 11.6 | marked increase |  | 
Clc1cccc(-c2c[nH]c3ncnc(N4CCOCC4)c23)c1 [Compound 6, 4-(5-(3-Chlorophenyl)-7H-pyrrolo[2,3-d]pyrimidin-4-yl)morpholine] |  |  |  |  |  |  |  | 15.3 |  | marked increase | 6.9 | 
CC(=O)NC1CCN(c2ncnc3[nH]cc(-c4cccc(Cl)c4)c23)CC1 [Compound 105, N-(1-(5-(3-chlorophenyl)-7H-pyrrolo[2,3-d]pyrimidin-4-yl)piperidin-4-yl)acetamide] | 8.1 | 11.8 | 15 | 318 | significant reduction | 99%** | < 1000 | 4.6 |  |  | 8.7 | 
NC(=O)c1cccc(-c2c[nH]c3ncnc(N4CCOCC4)c23)c1 [Compound 11, 3-(4-Morpholino-7H-pyrrolo[2,3-d]pyrimidin-5-yl)benzamide] | 9.5 | 10.9 | 30 | 42 | significant reduction |  | < 1000 | 23.2 | 15.9 | marked increase |  | maximum inhibition of MOB1 phosphorylation observed at 1 h
Clc1cccc(-c2c[nH]c3nccc(N4CCOCC4)c23)c1 [Compound 23, 4-(3-(3-chlorophenyl)-1H-pyrrolo[2,3-b]pyridin-4-yl)morpholine] |  |  |  |  |  | 33% | < 1000 | 16.6 |  | marked increase | 7.1 | 
